Measurements published in the supplement of paper PMC10307832.

Tests used:
Assay in all cases: relative viability (nuclei count vs DMSO), 5 days (fraction); higher = more cells survive
[1] = compound: C1CC2=C(C1)C=C(C=C2)OC3=NC(=C4C(=N3)N(C=N4)CC5=CC=C(C=C5)C6=CC=CC=C6)N[C@@H](CC7=CC=CC=C7)CO [QS11] + C[C@@H](Oc1cc(-c2cnn(C3CCNCC3)c2)cnc1N)c1c(Cl)ccc(F)c1Cl [Crizotinib] (partner 1 µM)
How it was run: (§1)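 Relative viability equals treated-well nuclei counts divided by vehicle-well nuclei counts. Counts came from 4× images of lung cancer cell lines grown in 1536-well plates for 5 days after pin-tool dosing on the day after seeding. Dosing used one drug alone or a fixed anchor-drug dose plus five library-drug doses (not always all listed) in √10 steps, and values are medians of duplicate plates.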

[2] = compound: C[As](C)SC[C@H](NC(=O)CC[C@H](N)C(=O)O)C(=O)NCC(=O)O [Darinaparsin] + CC1(C)CCC(c2ccc(Cl)cc2)=C(CN2CCN(c3ccc(C(=O)NS(=O)(=O)c4ccc(N[C@H](CCN5CCOCC5)CSc5ccccc5)c(S(=O)(=O)C(F)(F)F)c4)cc3)CC2)C1 [Navitoclax] (partner 0.5 µM)
How it was run: as §1

[3] = compound: C[As](C)SC[C@H](NC(=O)CC[C@H](N)C(=O)O)C(=O)NCC(=O)O [Darinaparsin] + O=C(c1cc(Cc2n[nH]c(=O)c3ccccc23)ccc1F)N1CCN(C(=O)C2CC2)CC1 [Olaparib] (partner 8 µM)
How it was run: as §1

[4] = compound: C1CC2=C(C1)C=C(C=C2)OC3=NC(=C4C(=N3)N(C=N4)CC5=CC=C(C=C5)C6=CC=CC=C6)N[C@@H](CC7=CC=CC=C7)CO [QS11] + O=C(CCCCCCC(=O)Nc1ccccc1)NO [Vorinostat] (partner 1 µM)
How it was run: as §1

| Cell Line | relative viability ([1]; first compound 0.08 µM) | relative viability ([1]; first compound 0.253 µM) | relative viability ([1]; first compound 0.8 µM) | relative viability ([1]; first compound 2.53 µM) | relative viability ([1]; first compound 8 µM) | relative viability ([2]; first compound 0.08 µM) | relative viability ([2]; first compound 0.8 µM) | relative viability ([2]; first compound 2.53 µM) | relative viability ([2]; first compound 8 µM) | relative viability ([3]; first compound 0.08 µM) | relative viability ([3]; first compound 0.8 µM) | relative viability ([3]; first compound 2.53 µM) | relative viability ([3]; first compound 8 µM) | relative viability ([4]; first compound 0.08 µM) | relative viability ([4]; first compound 0.253 µM) | relative viability ([4]; first compound 0.8 µM) | relative viability ([4]; first compound 2.53 µM) | relative viability ([4]; first compound 8 µM) |
| --- | --- | --- | --- | --- | --- | --- | --- | --- | --- | --- | --- | --- | --- | --- | --- | --- | --- | --- |
| NCI-H2228 | 0.425 | 0.467 | 0.457 | 0.356 | 0.41 | 0.856 | 0.996 | 1.02 | 0.825 | 0.746 | 0.74 | 0.693 | 0.944 | 0.62 | 0.535 | 0.61 | 1.17 | 0.741 |
| NCI-H2347 | 0.683 | 0.645 | 0.671 | 0.501 | 0.76 | 0.77 | 0.777 | 0.748 | 0.707 | 0.646 | 0.472 | 0.559 | 0.577 | 0.596 | 0.579 | 0.541 | 0.662 | 0.56 |
| NCI-H2405 | 0.822 | 0.883 | 0.808 | 0.88 | 0.95 | 0.801 | 0.829 | 0.781 | 0.88 | 0.992 | 0.865 | 0.841 | 0.914 | 1.12 | 0.957 | 0.766 | 1.06 | 0.974 |
| NCI-H3122 | 0.25 | 0.3 | 0.313 | 0.436 | 0.616 | 1.11 | 1.08 | 1.06 | 1.11 | 0.796 | 0.589 | 0.572 | 0.791 | 1 | 1.21 | – | 1.03 | 0.584 |
| PC-3 [JPC-3] | 0.957 | 0.97 | 0.949 | 1.03 | 1.01 | 0.832 | 0.748 | 0.767 | 0.825 | 1.42 | 1.15 | 1.16 | 1.26 | – | 0.722 | 0.709 | 0.72 | 0.697 |
| PC-14 | 0.851 | 0.896 | 0.871 | 0.848 | 0.911 | 1.19 | 0.981 | 1.04 | 1.17 | 0.234 | 0.261 | 0.222 | 0.225 | – | 0.839 | 0.695 | 0.808 | 0.69 |
| RERF-LC-KJ | 0.467 | 0.906 | 0.847 | 0.769 | 0.759 | 1.08 | 0.92 | 0.749 | 1.08 | 1.12 | 0.859 | 0.924 | 0.775 | 0.643 | 0.628 | 0.523 | 0.664 | 0.566 |
| SK-LU-1 | 1.1 | 0.822 | 0.63 | 0.544 | 0.785 | 0.986 | 0.807 | 0.671 | 1.02 | 0.613 | 0.431 | 0.407 | 0.562 | 0.786 | 0.849 | 0.604 | 0.572 | 0.614 |
| SK-MES-1 | 1.12 | 0.98 | 0.993 | 0.977 | 0.929 | 1.33 | 1.18 | 1.17 | 1.54 | 0.888 | 0.66 | 0.662 | 0.474 | 1.25 | 1.01 | 0.987 | 1.23 | 1.08 |
